The record followed here is ChEMBL document CHEMBL2412979, “2-(2-Methylfuran-3-carboxamido)-3-phenylpropanoic acid, a potential CYP26A1 inhibitor to enhance all-trans retinoic acid-induced leukemia cell differentiation based on virtual screening and biological evaluation” (Bioorg Med Chem, 2013).

Data set [1] has as its system NB-4. Nature of the data set: Cytotoxicity against human NB4 cells assessed as growth inhibition at 1 uM after 96 hrs by hemocytometry relative to control. Format: functional. To be noted: NB-4, 96 h, read-out: GI.
Data set [2] has as its system NB-4. Kind of data set: Potentiation of ATRA-induced human NB4 cell differentiation at 10 uM after 96 hrs by nitroblue tetrazolium assay (reference value: 29.44 +/- 2.03%). Format: functional.
Data set [3] concerns NB-4. Nature of the data set: Cytotoxicity against human NB4 cells assessed as growth inhibition at 0.5 uM after 96 hrs by hemocytometry relative to control. The format is functional. To be noted: NB-4, 96 h, read-out: GI.
For data set [4], the system named is NB-4. Kind of data set: Potentiation of ATRA-induced human NB4 cell growth inhibition at 10 uM after 96 hrs by hemocytometry (reference value: 32.70 +/- 2.25%). The format is functional. To be noted: NB-4, 96 h, read-out: GI.
In data set [5] the test system is NB-4. Kind of data set: Potentiation of ATRA-induced human NB4 cell growth inhibition at 0.5 uM after 96 hrs by hemocytometry (reference value: 32.42 +/- 3.98%). The format is functional. To be noted: NB-4, 96 h, read-out: GI.
The test system of data set [6] is NB-4. Nature of the data set: Potentiation of ATRA-induced human NB4 cell growth inhibition at 1 uM after 96 hrs by hemocytometry (reference value: 32.42 +/- 3.98%). To be noted: NB-4, 96 h, read-out: GI. The format is functional.
Data set [7] relates to NB-4. Nature of the data set: Potentiation of ATRA-induced human NB4 cell differentiation at 0.5 uM after 96 hrs by nitroblue tetrazolium assay (reference value: 29.93 +/- 0.73%). Format: functional.
Data set [8] concerns NB-4. Kind of data set: Cytotoxicity against human NB4 cells assessed as growth inhibition at 10 uM after 96 hrs by hemocytometry relative to control. Format: functional. To be noted: NB-4, 96 h, read-out: GI.
For data set [9], the system named is NB-4. Kind of data set: Cytotoxicity against human NB4 cells assessed as growth inhibition at 5 uM after 96 hrs by hemocytometry relative to control. The format is functional. To be noted: NB-4, 96 h, read-out: GI.
The subject of data set [10] is NB-4. Kind of data set: Potentiation of ATRA-induced human NB4 cell growth inhibition at 5 uM after 96 hrs by hemocytometry (reference value: 32.70 +/- 2.25%). Format: functional. To be noted: NB-4, 96 h, read-out: GI.
Data set [11] relates to NB-4. Nature of the data set: Induction of human NB4 cell differentiation at 0.5 to 10 uM after 96 hrs by nitroblue tetrazolium assay relative to control. Format: functional.
Data set [12] has as its system NB-4. Kind of data set: Potentiation of ATRA-induced human NB4 cell differentiation at 1 uM after 96 hrs by nitroblue tetrazolium assay (reference value: 29.93 +/- 0.73%). Format: functional.
The test system of data set [13] is NB-4. Nature of the data set: Potentiation of ATRA-induced human NB4 cell differentiation at 5 uM after 96 hrs by nitroblue tetrazolium assay (reference value: 29.44 +/- 2.03%). Format: functional.
The target in data set [14] is T1, Cytochrome P450 26A1 (Homo sapiens, UniProt O43174).
T1 sequence (O43174 whole entry): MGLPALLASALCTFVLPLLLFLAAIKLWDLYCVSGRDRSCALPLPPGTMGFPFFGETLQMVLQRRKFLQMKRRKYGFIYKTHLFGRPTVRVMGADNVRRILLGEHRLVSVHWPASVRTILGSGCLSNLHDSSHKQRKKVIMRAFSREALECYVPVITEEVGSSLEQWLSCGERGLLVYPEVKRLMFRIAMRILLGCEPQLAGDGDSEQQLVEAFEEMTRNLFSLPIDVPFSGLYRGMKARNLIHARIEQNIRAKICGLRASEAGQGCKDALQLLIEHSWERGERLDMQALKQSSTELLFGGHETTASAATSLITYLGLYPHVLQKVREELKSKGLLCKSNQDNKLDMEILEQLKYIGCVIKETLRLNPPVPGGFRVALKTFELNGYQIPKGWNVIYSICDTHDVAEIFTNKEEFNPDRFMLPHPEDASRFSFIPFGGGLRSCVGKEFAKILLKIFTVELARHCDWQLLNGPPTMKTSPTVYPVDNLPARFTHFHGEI
Kind of data set: Inhibition of CYP26A1 in human NB4 cells assessed as ATRA level in medium at 5 uM after 12 hrs by LC-MS/MS analysis (reference value: 27.05 +/- 1.34 ng/ml). The format is cell-based. To be noted: nb-4, 12 h.

As for `O=C(Nc1ccncc1)c1cc(-c2ccc(Br)cc2)nc2ccccc12`, the inhibition of growth at 1 µM in [1] is 24.7%; in data set [6] it was 48.7%. Further, the Activity worked out at 38.52% in data set [2]; 36.53% in data set [7]; 0% in [11]; 35.7% in data set [12]; 33.68% in data set [13]. In addition, the inhibition of growth at 0.5 µM in data set [3] turned out to be 20.2%; in data set [5] it was 54.3%. Further, the inhibition of growth at 10 µM amounted to 59.4% in [4] and 52.9% in [8]. The inhibition of growth at 5 µM in data set [9] is 37.9%; in data set [10], 63.1%.
With `COc1ccc(/C=C/C(=O)Nc2sc3c(c2C(=O)O)CCC3)cc1`, the figures for the Activity in data set [2], in data set [11] and in data set [13] were 31.42%, 0% and 30.05%, respectively. For the same molecule, the inhibition of growth at 10 µM in data set [4] is 34.9%; in [8], 1.22%. Further, the values for the inhibition of growth at 5 µM in data set [9] and in [10] were 0.49% and 31.5%, respectively.
On to `Cc1cccc(-c2nc3cc(/N=C/c4c(C)cc(O)cc4O)ccc3o2)c1`, for which the inhibition of growth at 1 µM in data set [1] stood at 22.6%; in [6], 48.5%. The Activity in data set [2] came out at 45.38%; in [7] it was 29.21%; in data set [11], 0%; in [12] it was 27.65%; in [13], 36.43%. The inhibition of growth at 0.5 µM in data set [3] was 25.8%; in data set [5], 50.1%. Further, the figures for the inhibition of growth at 10 µM in data set [4] and in data set [8] were 79% and 48.5%, respectively. The inhibition of growth at 5 µM in data set [9] worked out at 37.1%; in data set [10], 64.3%.
Turning to `Cc1ccc(OCc2nc(-c3cccnc3)no2)c(Br)c1`, the Activity is 28.85% in data set [2], 0% in data set [11] and 25.37% in data set [13]. In addition, the inhibition of growth at 10 µM in [4] was determined as 42.9%; in [8], 23.5%. Further, the values for the inhibition of growth at 5 µM in data set [9] and in data set [10] were 18.2% and 39.8%, respectively.
Turning to `O=C(O)c1ccc(COc2ccc(/C=C3\SC(=O)N(c4cccc(Cl)c4)C3=O)cc2)cc1`, the figures for the inhibition of growth at 1 µM in [1] and in [6] were 18% and 53.7%, respectively. For the same molecule, the Activity in data set [2] amounted to 41.85%; in data set [7], 31.47%; in data set [11], 0%; in data set [12], 35.4%; in data set [13], 38.42%. In addition, the inhibition of growth at 0.5 µM in [3] was 18.6%; in [5], 44.1%. Also, the inhibition of growth at 10 µM is 41.1% in data set [4] and 9.07% in data set [8]. The inhibition of growth at 5 µM in data set [9] amounted to 11%; in [10], 43.8%.
Turning to `CCOc1ccc(NS(=O)(=O)c2ccc(Br)cc2)cc1`, the Activity came out at 30.3% in data set [2], 0% in data set [11] and 26.83% in [13]. Moreover, the inhibition of growth at 10 µM amounted to 48.4% in data set [4] and 20.8% in data set [8]. The inhibition of growth at 5 µM in data set [9] turned out to be 17.1%; in data set [10], 44.1%.
For `CC(=O)Nc1ccc(C(=O)Nc2ccc(OCC(=O)O)cc2)cc1`, the results for the inhibition of growth at 1 µM in [1] and in data set [6] were 8.83% and 45.1%, respectively. Further, the Activity in data set [2] is 38.97%; in data set [7] it was 37.62%; in data set [11], 0%; in data set [12], 34.74%; in data set [13], 38.29%. Moreover, the inhibition of growth at 0.5 µM in data set [3] is 7.8%; in [5] it was 45%. Besides, the inhibition of growth at 10 µM amounted to 48.8% in [4] and 14.2% in data set [8]. The inhibition of growth at 5 µM in [9] turned out to be 17.9%; in data set [10], 45.8%.
On to `Cc1cc(O)nc(SCC(=O)c2ccc(O)c(O)c2)n1`, for which the inhibition of growth at 1 µM in data set [1] came to 18.7%; in [6], 51.7%. Also, the Activity in data set [2] is 39.43%; in data set [7] it was 33.19%; in data set [11], 0%; in data set [12], 32.57%; in data set [13], 41.32%. Also, the inhibition of growth at 0.5 µM in data set [3] is 19.3%; in data set [5], 50.3%. The inhibition of growth at 10 µM in data set [4] amounted to 53.5%; in data set [8], 12.8%. Also, the inhibition of growth at 5 µM in [9] was found to be 12.2%; in data set [10], 53.4%.
With `O=C(CCN1C(=O)c2ccccc2C1=O)NCc1ccncc1`, the inhibition of growth at 1 µM is 16.5% in data set [1] and 48.5% in data set [6]. Further, the Activity worked out at 41.21% in [2]; 35.05% in data set [7]; 0% in data set [11]; 37.16% in data set [12]; 41.55% in data set [13]. For the same molecule, the inhibition of growth at 0.5 µM in data set [3] was 14.2%; in data set [5], 50.8%. Moreover, the inhibition of growth at 10 µM was 49.7% in data set [4] and 12.4% in [8]. Also, the inhibition of growth at 5 µM was 14.6% in data set [9] and 50.9% in data set [10].
For `Clc1cccc(C(c2ccc3[nH]cnc3c2)n2ccnc2)c1` (stereo not drawn) [LIAROZOLE], the inhibition of growth at 1 µM was 23.1% in data set [1] and 46% in data set [6]. Further, the Activity in data set [2] was found to be 34.9%; in data set [7], 42.86%; in [11] it was 0%; in data set [12], 38.22%; in [13], 33.53%; in data set [14], 39.78 ng/mL. Further, the inhibition of growth at 0.5 µM was 14.5% in [3] and 49.6% in data set [5]. For the same molecule, the inhibition of growth at 10 µM came out at 56.3% in data set [4] and 40.9% in data set [8]. Also, the inhibition of growth at 5 µM in [9] came out at 32.7%; in data set [10] it was 55.3%.
As for `CC1=CC(=O)OC2C=C(OCCOc3ccc(C(C)(C)C)cc3)C=CC12` (stereo not drawn), the inhibition of growth at 1 µM worked out at 13.6% in data set [1] and 43% in data set [6]. For the same molecule, the Activity worked out at 42.39% in [2]; 35.72% in [7]; 0% in [11]; 38.42% in data set [12]; 39.97% in [13]. Further, the inhibition of growth at 0.5 µM in data set [3] is 14.4%; in data set [5] it was 46.1%. Moreover, the inhibition of growth at 10 µM was 48.3% in data set [4] and 6.78% in [8]. Also, the values for the inhibition of growth at 5 µM in data set [9] and in data set [10] were 7.78% and 43.5%, respectively.
With `Cc1oc(C(C)(C)C)cc1C(=O)NC(Cc1ccccc1)C(=O)O` (stereo not drawn), the figures for the inhibition of growth at 1 µM in data set [1] and in data set [6] were 17.8% and 47.1%, respectively. Further, the Activity in data set [2] stood at 42.64%; in [7], 39.58%; in data set [11], 0%; in [12], 38%; in data set [13], 45.16%; in [14], 33.9 ng/mL. Further, the inhibition of growth at 0.5 µM in data set [3] was determined as 12.8%; in data set [5] it was 50.6%. In addition, the inhibition of growth at 10 µM was 47.1% in data set [4] and 8.05% in data set [8]. The results for the inhibition of growth at 5 µM in data set [9] and in data set [10] were 7.7% and 40.2%, respectively.
With `O=C(CCN1C(=O)c2ccccc2C1=O)Nc1cc(Cl)ccc1C(=O)O`, the inhibition of growth at 1 µM in data set [1] was 19.2%; in data set [6], 38.6%. The Activity in [2] was determined as 36.7%; in [7], 35.1%; in data set [11] it was 0%; in [12], 36.18%; in [13], 39.6%. The inhibition of growth at 0.5 µM turned out to be 13.8% in data set [3] and 47.9% in data set [5]. In addition, the inhibition of growth at 10 µM is 39.1% in [4] and 9.31% in [8]. The figures for the inhibition of growth at 5 µM in data set [9] and in [10] were 3.68% and 41.3%, respectively.
